Assay results taken from the NIST ThermoML archive (doi:10.1021/je400065j).
± gives the expanded uncertainty stated by the source.

What was measured:
[1] = refractive index (Na D-line) (dimensionless); conditions: 293.15 K; 101.33 kPa; Liquid; Standard Abbe refractometry
[2] = Liquid, Closed cell (Static) method

refractive index [1] | vapor or sublimation pressure ([2]; 383.3 K) | vapor or sublimation pressure ([2]; 413.2 K) | Structure (SMILES) | vapor or sublimation pressure ([2]; 398.1 K) | vapor or sublimation pressure ([2]; 398.2 K)
1.3618 ± 0.0007 | 315.6 ± 1.7 kPa | 757 ± 3 kPa | CCO [ethanol] | – | 498.3 ± 2.2 kPa
1.3287 ± 0.0007 | 480.7 ± 2.3 kPa | 1086 ± 4.1 kPa | CO [methanol] | 733.7 ± 3.1 kPa | –

Structure (SMILES) | refractive index [1] | vapor or sublimation pressure ([2]; 383.3 K) | vapor or sublimation pressure ([2]; 413.2 K) | vapor or sublimation pressure ([2]; 398.1 K) | vapor or sublimation pressure ([2]; 398.2 K)
CCC(C)=O [butanone] | 1.3788 ± 0.0007 | 245.6 ± 1.3 kPa | 506.6 ± 1.9 kPa | 358.5 ± 1.5 kPa | 358.5 ± 1.5 kPa
